“And” between values parts separate entries of the source, which are not always exact repeats. Identical values can stand only once. “Also recorded” adds a separate entry of the source. Like-named read-outs stand apart in the source and are kept apart here.
Key:
[1] = Physicochemical properties extracted from databases
Excerpt: Triptans are a relatively homogeneous group of drug compounds with similar physicochemical properties, including molecular weights < 400 g/mol and a low to moderate lipophilicity (cLogD values ranging from − 2.1–0.18). […] As a consequence, it is unlikely that triptans cross the brain microvascular endothelium through passive diffusion to a clinically relevant extent. Table 1 summarizes structures and physicochemical properties of the triptans, as well as oxycodone and pyrilamine, which are two prototypical H^+/OC antiporter substrates included in this study.

H^+/OC antiporter [2] = experiment: Concentration-dependent cellular uptake into hCMEC/D3 cells (Michaelis-Menten kinetics); type: cell-based, human; details: for Km: read-out: Apparent Km
Procedure: (§1) The immortalized human cerebral microvascular endothelial cell line (hCMEC/D3) was maintained in T75-flasks coated with collagen type I from calf skin (C9791, 18.7 μg/mL) and cultured in EBM®-2 medium (Lonza, Basel, Schweiz) supplemented with 5% (v/v) fetal bovine serum (FBS, 10270, Life Technologies, CA, USA or SH3008803, ThermoFisher Scientific, MA, USA), 100 U/mL penicillin and 100 μg/ml streptomycin, 1 ng/mL human basic fibroblast growth factor (bFGF), 1.4 μM hydrocortisone, 1% (v/v) chemically defined lipid concentrate (ThermoFisher Scientific, MA, USA), 10 mM N-2-hydroxyethylpiperazine-N-2-ethane sulfonic acid (HEPES) and 5 μg/mL ascorbic acid (5% CO2, 37 °C). […] For experiments, cells were seeded into 24-well plates (6.7·10^4 cells/cm^2) and cultured for four continuous days. The cells were used for experiments between passage 3–31.
(§2) The cells were equilibrated in hHBSS with or without inhibitor for 15 min (37 °C, 90 rpm). The compound of interest was spiked into the hHBSS followed by incubation for a designated time. The timeframe of the initial uptake rate was validated into hCMEC/D3 cells (Fig. 1 and Additional file 1). The experiment was terminated by washing three times with ice-cold HBSS supplemented with 0.0375% (v/v) sodium bicarbonate.
To assess the concentration-dependent uptake, the uptake flux was fitted to the Michaelis–Menten equation, Eq. 1.1 Jss=Jmax[S]/Km+[S] where Jss represents flux under steady state, Jmax is the maximal flux, [S] is the substrate concentration, and Km is the Michaelis–Menten constant.
The hCMEC/D3 cells were used for concentration-dependent uptake studies between passage 21–23 (pyrilamine), 11–13 (oxycodone), 12–14 (almotriptan), 16–18 (eletriptan), and 12–14 (sumatriptan).
(§3) The cells were permeabilized using 50% (v/v) acetonitrile (HPLC LC–MS grade, VWR International S.A.S, Soeborg, Denmark) in ultrapure water (ELGA, Buckinghamshire, England) for 10 min at room temperature. Thereafter, the cells were scraped off the bottom of the wells and transferred to HPLC vials. Samples from bidirectional transport experiments were transferred directly into HPLC vials. All samples were stored at – 18 °C for later analysis. Calibration curves with standards in the range of 1 or 5–1000 ng/mL were dissolved in 50% (v/v) acetonitrile in ultrapure water (ELGA, Buckinghamshire, England), or in hHBSS(-) for analysis of bidirectional transport samples.
(§4) Liquid chromatography tandem mass spectrometry (LC–MS/MS) were performed using electrospray ionization in positive mode on a micromass Quattro micro™ API tandem quadrupole mass spectrometer (Waters, MA, USA) or an Ultivo triple quadrupole mass spectrometer (Agilent Technologies, CA, USA) coupled to Agilent HPLC system 1100 Series or 1260 Series (Agilent Technologies, CA, USA California), respectively. Applied columns were an InfinityLab Poroshell 120 EC-C18 (3.0 × 50 mm; 2.7 micron, Agilent Technologies, CA, USA) or a Kinetex 2.6 μm XB-C18 (100 Å, 100 × 4.6 mm, Phenomenex Inc., CA, USA). An overview of applied HPLC and MS/MS parameters can be found in Additional file 2 and Additional file 3, respectively. The data acquisition software was MassLynx (V4.1, Waters, MA, USA).
The protein content of hCMEC/D3 cells was determined for normalization purposes. Cells were washed with ice-cold phosphate buffered saline following cell lysis in cell extraction buffer (FNN0011, Thermo Fisher Scientific, MA, USA) supplemented with 1 × cOmplete™ Protease Inhibitor Cocktail (04693116001, Roche, Basel, Schweiz), 1 mM phenylmethylsulfonyl fluoride, and […] for 30 min on ice.

H^+/OC antiporter [3] = experiment: Inhibition of [^3H]-pyrilamine uptake into hCMEC/D3 cells; type: cell-based, human
Procedure: as §1, §2
The inhibitory constant at 50% inhibition (IC50) was determined by fitting the uptake flux (Jss) as function of the logarithmic inhibitor concentration to Eq. 2.2 Jss=Jmin+(Jmax-Jmin)/1+10^logIC50-InH where [I] is the inhibitor concentration, nH is the Hill coefficient.
The hCMEC/D3 cells were used for [^3H]-pyrilamine inhibition studies between passage 3–6 (pyrilamine, oxycodone), 16–18 (almotriptan), 7–13 (eletriptan), 25–27 (frovatriptan), 3–8 (naratriptan), 16–18 (rizatriptan), 12–14 (sumatriptan), and 14–16 (zolmitriptan).
The cells were permeabilized using 0.1% (v/v) Triton X-100 in ultrapure water (ELGA, Buckinghamshire, England) for 10 min at room temperature. Thereafter, the cells were scraped off the bottom of the wells, transferred to scintillation vials, and mixed with 2 mL of Ultima Gold 241 TM (Perkin Elmer, MA, USA). The samples were analyzed using a Tri-Carb 2910 TR Liquid Scintillation Analyzer (Perkin Elmer, MA, USA).

H^+/OC antiporter [4] = experiment: Cellular uptake into hCMEC/D3 cells in absence or presence of pyrilamine or oxycodone; type: cell-based, human; details: for Inhibition by oxycodone (of the compound's uptake): 500 µM oxycodone
Procedure: as §2
The hCMEC/D3 cells were used for time-dependent uptake studies between passage 3–5 (pyrilamine), 7–9 (oxycodone), 6–8 (almotriptan), and 24–31 (eletriptan).
The hCMEC/D3 cells were used for uptake studies of almotriptan, eletriptan, and sumatriptan in the presence of pyrilamine and oxycodone between passage 21–23.
as §3, §4

H^+/OC antiporter [5] = experiment: Cellular uptake into hCMEC/D3 cells after intra- and extracellular pH manipulation; type: cell-based, human; details: for Cellular uptake after intracellular alkalization: acute exposure to 30 mM NH4Cl vs control pH 7.4; for Cellular uptake at extracellular acidification: extracellular pH 6.8 vs pH 7.4; for Cellular uptake at extracellular alkalization: extracellular pH 8.2 vs pH 7.4; for Cellular uptake after intracellular acidification: preexposure to 30 mM NH4Cl followed by media change vs control
[6] = cited from earlier work; for Strongest basic pKa: extracted from DrugBank
H^+/OC antiporter [7] = tested on: H^+/OC antiporter; parameters: method as in PMID 35955563; details: trans-stimulation in hCMEC/D3 cells; cited from earlier work
[8] = tested on: organic cation transporter 1 (OCT1); parameters: method as in PMID 35955563; details: cited from earlier work
P-gp [9] = biological target: P-gp (Homo sapiens, UniProt P08183); parameters: expressed in transfected cells; host or cells: IPEC-J2 (porcine ileum epithelial cell line); method as in PMID 12438524; details: MDR1-MDCKII cell line; cited from earlier work
P-gp [10] = tested on: P-gp; parameters: method as in PMID 12814962; details: brain Kp in wild type and mdr1a knockout mice; cited from earlier work
[11] = [^3H]-pyrilamine 1 µCi/mL, 48 nM, read-out: Apparent IC50 on [^3H]-pyrilamine uptake

Sequence of P-gp (Homo sapiens, UniProt P08183) (P08183 whole entry): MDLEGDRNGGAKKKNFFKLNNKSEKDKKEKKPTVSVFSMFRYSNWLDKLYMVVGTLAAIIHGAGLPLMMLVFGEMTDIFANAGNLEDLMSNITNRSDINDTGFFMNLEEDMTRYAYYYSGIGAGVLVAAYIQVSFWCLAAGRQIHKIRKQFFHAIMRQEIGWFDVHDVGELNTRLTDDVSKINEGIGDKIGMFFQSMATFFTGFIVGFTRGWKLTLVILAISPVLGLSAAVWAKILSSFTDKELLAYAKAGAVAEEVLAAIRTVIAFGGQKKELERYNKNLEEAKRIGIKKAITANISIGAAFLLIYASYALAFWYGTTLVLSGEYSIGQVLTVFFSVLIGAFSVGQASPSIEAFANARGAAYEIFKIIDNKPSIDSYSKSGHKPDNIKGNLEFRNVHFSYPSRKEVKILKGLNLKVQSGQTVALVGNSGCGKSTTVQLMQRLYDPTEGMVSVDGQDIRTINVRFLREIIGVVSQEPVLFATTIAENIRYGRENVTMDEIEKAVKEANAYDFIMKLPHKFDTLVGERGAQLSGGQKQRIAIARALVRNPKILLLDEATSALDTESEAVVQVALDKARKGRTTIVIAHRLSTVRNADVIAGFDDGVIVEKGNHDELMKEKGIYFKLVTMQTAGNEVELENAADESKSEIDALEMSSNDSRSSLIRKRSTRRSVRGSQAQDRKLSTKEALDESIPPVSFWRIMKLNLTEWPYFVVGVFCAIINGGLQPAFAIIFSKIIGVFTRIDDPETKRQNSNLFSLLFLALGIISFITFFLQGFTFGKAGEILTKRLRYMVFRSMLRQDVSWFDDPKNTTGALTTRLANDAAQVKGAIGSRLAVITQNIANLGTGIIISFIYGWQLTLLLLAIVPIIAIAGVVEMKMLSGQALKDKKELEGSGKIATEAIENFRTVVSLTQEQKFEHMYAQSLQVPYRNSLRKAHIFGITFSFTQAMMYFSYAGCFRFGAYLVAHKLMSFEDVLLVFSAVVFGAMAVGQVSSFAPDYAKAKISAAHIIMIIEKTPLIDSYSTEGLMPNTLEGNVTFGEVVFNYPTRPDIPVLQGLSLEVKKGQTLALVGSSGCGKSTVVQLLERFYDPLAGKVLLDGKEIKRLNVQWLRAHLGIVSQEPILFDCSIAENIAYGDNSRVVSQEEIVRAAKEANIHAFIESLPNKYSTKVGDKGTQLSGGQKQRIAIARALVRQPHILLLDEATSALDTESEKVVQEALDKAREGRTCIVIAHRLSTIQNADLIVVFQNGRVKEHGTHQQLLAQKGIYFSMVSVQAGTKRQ

SMILES | Overall charge pH 7.4 [1] | IC50 (H^+/OC antiporter [3]; [11]) | Cellular uptake after intracellular alkalization (H^+/OC antiporter [5]) | Cellular uptake at extracellular acidification (H^+/OC antiporter [5]) | Cellular uptake at extracellular alkalization (H^+/OC antiporter [5]) | Cellular uptake after intracellular acidification (H^+/OC antiporter [5]) | Strongest basic pKa [6] | cLogD pH 7.4 ([6]; extracted from ChemSpider) | further results
CN(C)CCc1c[nH]c2ccc(CS(=O)(=O)N3CCCC3)cc12 [Almotriptan] | Positive | ~305 µM and 305 µM | decreased | reduced | increased | statistically significant increase | 9.6 | 0.3 | Concentration-dependent uptake (saturability) (H^+/OC antiporter [2]; hCMEC/D3 cells, tested concentration range): did not show saturable uptake; Association with H^+/OC antiporter (H^+/OC antiporter [2]; summary of uptake and inhibition studies in hCMEC/D3 cells): (substrate) decent inhibitor; Apparent Km (H^+/OC antiporter [2]; uptake into hCMEC/D3 cells): not saturable (in tested range); Inhibition by oxycodone (of the compound's uptake) (H^+/OC antiporter [4]; triptan 50 µM, asterisks = P level): no; Inhibition by oxycodone (of the compound's uptake) (H^+/OC antiporter [4]; triptan 50 µM, asterisks = P level, listed as almotriptan): did not inhibit; Inhibition by pyrilamine (of the compound's uptake) (H^+/OC antiporter [4]; triptan 50 µM, 500 µM pyrilamine, asterisks = P level): slightly inhibited; also recorded: yes (*); Proton-gradient dependence of uptake (H^+/OC antiporter [5]; hCMEC/D3 cells): yes
CN(C)CCc1c[nH]c2ccc(C[C@H]3COC(=O)N3)cc12 [Zolmitriptan] | Positive | 1730 ± 1210 µM | – | – | – | – | – | 0.4 | H^+/OC antiporter substrate (H^+/OC antiporter [7]): did not appear to be H^+/OC antiporter substrate candidates; OCT1 substrate [8]: substrates of OCT1; ER (P-gp [9]): 2.48
CN(C)CCc1c[nH]c2ccc(Cn3cncn3)cc12 [Rizatriptan] | Positive | 719 ± 243 µM | – | – | – | – | – | – | P-gp substrate (P-gp [10]): substrates of P-gp; cLogD pH 7.4 [6]: 0.04
COc1ccc2c3c1O[C@H]1C(=O)CC[C@@]4(O)[C@@H](C2)N(C)CC[C@]314 [Oxycodone] | Positive | – | reduced cellular uptake | reduced cellular uptake | increased cellular uptake | increased cellular uptake | 8.8 | 0.5 | Jmax (H^+/OC antiporter [2]; uptake into hCMEC/D3 cells): 5.3 ± 1.0 nmol·min^−1·mg protein^−1; Km (H^+/OC antiporter [2]; uptake into hCMEC/D3 cells, listed as oxycodone): ~130 µM; Km (H^+/OC antiporter [2]; uptake into hCMEC/D3 cells): 130 ± 57 µM; IC50 (H^+/OC antiporter [3]; read-out: Apparent IC50 on [^3H]-pyrilamine uptake, [^3H]-pyrilamine 1 µCi/mL, 48 nM): 225 ± 57 µM; IC50 (H^+/OC antiporter [3]; read-out: Apparent IC50 on [^3H]-pyrilamine uptake, [^3H]-pyrilamine 1 µCi/mL, 48 nM, listed as oxycodone): ~225 µM; Time-dependent uptake in presence of 1000 µM pyrilamine (H^+/OC antiporter [4]; oxycodone 500 µM): reduced

From PMC11071266, “The putative proton-coupled organic cation antiporter is involved in uptake of triptans into human brain capillary endothelial cells” (Fluids and Barriers of the CNS, 2024)
